Source: US11001590B2, “Pyrazolopyrimidine derivatives” (BAYER ANIMAL HEALTH GMBH, priority 2016, dated 2021)

How the values were obtained:
[1] = log P by HPLC on reversed phase columns (Method L0; [a] acidic, [b] neutral range); conditions: for log P: HPLC on reversed phase columns (Method L0); for logP (Method L0) [a]: HPLC on reversed phase columns, Method L0, [a] acidic range
Experimental: Calibration was done with straight-chain alkan-2-ones (with 3 to 16 carbon atoms) with known log P values (measurement of log P values using retention times with linear interpolation between successive alkanones). Lambda-max-values were determined using UV-spectra from 200 nm to 400 nm and the peak values of the chromatographic signals.

[2] = target: C. elegans Slo-1a (Caenorhabditis elegans, UniProt Q95V25); experiment: In vitro assay 1: C. elegans Slo-1a, action at a recombinant C. elegans CHO cell line (membrane potential measurement); conditions: for pE50: CHO cells expressing C. elegans Slo-1a, voltage sensitive dye, FLIPR Tetra, negative decadic logarithm of EC50
[3] = last column of Table 1, column head not shown

Chain of C. elegans Slo-1a (Q95V25 whole entry): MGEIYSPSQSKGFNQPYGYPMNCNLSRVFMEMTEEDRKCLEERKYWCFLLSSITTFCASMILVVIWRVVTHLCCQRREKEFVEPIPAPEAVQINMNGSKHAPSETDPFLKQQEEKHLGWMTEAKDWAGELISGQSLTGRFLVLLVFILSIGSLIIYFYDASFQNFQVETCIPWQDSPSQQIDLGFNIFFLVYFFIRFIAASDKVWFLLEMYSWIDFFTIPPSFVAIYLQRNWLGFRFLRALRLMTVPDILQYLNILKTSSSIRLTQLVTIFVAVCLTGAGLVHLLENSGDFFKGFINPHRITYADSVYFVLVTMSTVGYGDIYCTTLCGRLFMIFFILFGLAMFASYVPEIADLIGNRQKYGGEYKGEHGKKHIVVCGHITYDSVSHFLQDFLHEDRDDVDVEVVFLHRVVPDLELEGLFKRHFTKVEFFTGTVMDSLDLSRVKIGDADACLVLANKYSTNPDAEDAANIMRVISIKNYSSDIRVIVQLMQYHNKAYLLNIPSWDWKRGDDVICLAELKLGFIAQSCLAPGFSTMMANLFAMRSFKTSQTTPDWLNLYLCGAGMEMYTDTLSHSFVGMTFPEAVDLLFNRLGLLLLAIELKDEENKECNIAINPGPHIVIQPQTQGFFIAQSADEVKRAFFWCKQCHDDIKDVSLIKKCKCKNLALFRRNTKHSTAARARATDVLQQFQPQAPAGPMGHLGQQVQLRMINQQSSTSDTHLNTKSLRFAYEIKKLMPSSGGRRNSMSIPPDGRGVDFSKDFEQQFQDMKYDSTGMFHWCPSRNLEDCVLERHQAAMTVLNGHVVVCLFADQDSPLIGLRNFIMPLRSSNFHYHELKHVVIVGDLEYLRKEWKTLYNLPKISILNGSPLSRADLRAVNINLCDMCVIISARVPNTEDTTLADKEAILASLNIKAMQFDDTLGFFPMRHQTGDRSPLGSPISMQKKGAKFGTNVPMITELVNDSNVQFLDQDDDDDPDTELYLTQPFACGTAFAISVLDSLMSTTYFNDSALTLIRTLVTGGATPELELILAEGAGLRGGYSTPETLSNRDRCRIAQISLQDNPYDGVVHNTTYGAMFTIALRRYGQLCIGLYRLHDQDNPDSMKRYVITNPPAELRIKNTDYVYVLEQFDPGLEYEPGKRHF

Compound | log P [1] | chromatographic logP [1] | EC50 [2] [nM] | other results
Cc1nn2c(N(C)CC[S+](C)[O-])c(C(=O)NC3CCOc4ccccc43)cnc2c1-c1cc(Cl)cc(Cl)c1 (mixture of isomers) [Example 540] | – | – | – | log P [1, 3]: 2.88; pE50 [2]: 7.7
Cc1ccc2c(c1)C(NC(=O)c1cnc3c(-c4c(F)cccc4Cl)c(C)nn3c1C(C)C)CCO2 (racemic) [Example 237] | 4.67 | – | – | pE50 [2]: 7.5
Cc1nn2c(C(C)C)c(C(=O)NC3CCOc4ccc(F)cc43)cnc2c1-c1c(F)cccc1Cl (racemic) [Example 254] | 4.45 | – | – | pE50 [2]: 8.1
Cc1nn2c(C(C)C)c(C(=O)NC3CCc4ccccc43)cnc2c1-c1cccc(C(F)(F)F)c1 (stereo not drawn) [Example 1] | – | 5.29 | 39.8 | –
Cc1nn2c(C(C)C)c(C(=O)NC3CCCc4ccccc43)cnc2c1-c1cccc(C(F)(F)F)c1 (stereo not drawn) [Example 2] | – | 5.59 | 31.6 | –
Cc1ccc2c(c1)[C@@H](NC(=O)c1cnc3c(-c4cccc(C(F)(F)F)c4)c(C)nn3c1C(C)C)CCC2 [Example 5] | – | – | – | logP (Method L0) [a] [1]: 5.99; pE50 [2]: 7.2
Cc1nn2c(C(C)C)c(C(=O)N[C@H]3CCCc4ccccc43)cnc2c1-c1cc(Cl)cc(Cl)c1 [Example 7] | – | 6.39 | 20 | –
Cc1nn2c(C)c(C(=O)N[C@H]3CCCc4ccccc43)cnc2c1-c1cccc(Cl)c1 [Example 46] | – | 4.42 | 251 | –
CC(C)c1c(C(=O)N[C@H]2CCc3ccccc32)cnc2c(-c3cccc(Cl)c3)c(C(F)(F)F)nn12 [Example 48] | – | 5.46 | 251 | –
CC(C)c1c(C(=O)N[C@H]2CCCc3ccccc32)cnc2c(-c3cccc(C(F)(F)F)c3)c(C(F)(F)F)nn12 [Example 56] | – | 5.8 | 398 | –
Cc1nn2c(C)c(C(=O)N[C@H]3CCc4ccccc43)cnc2c1-c1cccc(Cl)c1 [Example 59] | – | 4.12 | 79.4 | –
Cc1nn2c(C)c(C(=O)N[C@H]3CCc4ccccc43)cnc2c1-c1cc(Cl)cc(Cl)c1 [Example 60] | – | 4.96 | 7940 | –
Cc1nn2c(C)c(C(=O)N[C@H]3CCCc4ccccc43)cnc2c1-c1cc(Cl)cc(Cl)c1 [Example 61] | – | 5.29 | 6310 | –
Cc1nn2cc(C(=O)N[C@H]3CCc4ccccc43)cnc2c1-c1ccccc1Cl [Example 62] | – | 3.52 | 2000 | –
CC(C)c1c(C(=O)N[C@H]2CCc3ccccc32)cnc2c(-c3cccc(C(F)(F)F)c3)c(Cl)nn12 [Example 70] | – | 5.55 | 31.6 | –
CC(C)c1c(C(=O)N[C@H]2CCCc3ccccc32)cnc2c(-c3cccc(C(F)(F)F)c3)c(Cl)nn12 [Example 72] | – | 5.85 | 79.4 | –
CC(C)c1c(C(=O)N[C@H]2CCc3ccccc32)cnc2c(-c3ccc(Cl)cc3)c(Cl)nn12 [Example 73] | – | 5.47 | 158 | –
Cc1c(C(=O)N[C@H]2CCc3ccccc32)cnc2c(-c3ccccc3Cl)c(C(F)(F)F)nn12 [Example 81] | – | 4.24 | 398 | –
CC(C)c1c(C(=O)N[C@H]2CCc3ccccc32)cnc2c(-c3ccccc3Cl)c(C(F)(F)F)nn12 [Example 88] | – | 4.96 | 79.4 | –
CC(C)c1c(C(=O)N[C@H]2CCCc3ccccc32)cnc2c(-c3ccccc3Cl)c(C(F)(F)F)nn12 [Example 89] | – | 5.24 | 631 | –
CC(C)c1c(C(=O)N[C@H]2CCc3ccccc32)cnc2c(-c3cccc(C(F)(F)F)c3)c(C(F)(F)F)nn12 [Example 91] | – | 5.51 | 63.1 | –
Cc1nn2c(C(C)C)c(C(=O)N[C@H]3CCOc4ccc(Cl)cc43)cnc2c1-c1ccccc1F [Example 93] | – | – | – | logP (Method L0) [a] [1]: 4.67; pE50 [2]: 7
Cc1nn2c(C(C)C)c(C(=O)N[C@H]3CCOc4ccc(Cl)cc43)cnc2c1-c1c(F)cccc1F [Example 97] | – | – | – | logP (Method L0) [a] [1]: 4.61; pE50 [2]: 7.2

Compound | log P [1] | chromatographic logP [1] | EC50 [2] [nM] | other results
Cc1nn2c(C(C)C)c(C(=O)N[C@H]3CCOc4ccc(Cl)cc43)cnc2c1-c1ccc(F)c(F)c1 [Example 101] | – | – | – | logP (Method L0) [a] [1]: 5.03; pE50 [2]: 6.6
COc1c(C(=O)N[C@H]2CCOc3ccccc32)cnc2c(-c3c(F)cccc3Cl)c(C)nn12 [Example 514] | – | – | – | log P [1, 3]: 4.93
COc1c(C(=O)N[C@H]2CCOc3ccccc32)cnc2c(-c3cc(Cl)cc(Cl)c3F)c(C)nn12 [Example 515] | – | – | – | log P [1, 3]: 3.17
COc1c(C(=O)N[C@H]2CCOc3ccccc32)cnc2c(-c3ccc(F)c(F)c3)c(C)nn12 [Example 519] | – | – | – | log P [1, 3]: 2.88
COc1c(C(=O)N[C@H]2CCOc3ccccc32)cnc2c(-c3cc(Cl)cc(Cl)c3)c(C)nn12 [Example 521] | – | – | – | log P [1, 3]: 3.56
Cc1nn2c(C3CC3)c(C(=O)N[C@H]3CCOc4ccccc43)cnc2c1-c1ccnc(N2CCOCC2)c1 [Example 526] | – | – | – | log P [1, 3]: 1.53
Cc1nn2c(C(C)C)c(C(=O)N[C@H]3CCc4ccccc43)cnc2c1-c1ccc(C#N)cc1 [Examples 301] | 4.28 | – | – | –
Cc1nn2c(C(C)C)c(C(=O)N[C@H]3CCc4ccccc43)cnc2c1-c1cn[nH]c1 [Examples 307] | 2.75 | – | – | –
CC(=O)Nc1ccc(-c2c(C)nn3c(C(C)C)c(C(=O)N[C@H]4CCc5ccccc54)cnc23)cc1 [Examples 327] | 3.24 | – | – | –
Cc1nn2c(C(C)C)c(C(=O)N[C@H]3CCc4ccccc43)cnc2c1-c1ccc(NS(C)(=O)=O)cc1 [Examples 330] | 3.38 | – | – | –
Cc1nn2c(C(C)C)c(C(=O)N[C@H]3CCc4ccccc43)cnc2c1-c1ccc(OCC(F)(F)F)cc1 [Examples 336] | 4.91 | – | – | –
COCc1cccc(-c2c(C)nn3c(C(F)(F)F)c(C(=O)N[C@H]4CCc5ccccc54)cnc23)c1 [Examples 371] | 4.32 | – | – | –
Cc1nn2c(C(F)(F)F)c(C(=O)N[C@H]3CCc4ccccc43)cnc2c1-c1cccc(Cl)c1 [Examples 382] | 4.97 | – | – | –
Cc1nn2c(C(F)(F)F)c(C(=O)N[C@H]3CCc4ccccc43)cnc2c1-c1cccc(OC(F)(F)F)c1 [Examples 383] | 5.21 | – | – | –
Cc1nn2c(C(F)(F)F)c(C(=O)N[C@H]3CCc4ccccc43)cnc2c1-c1cccc(C(F)(F)F)c1 [Examples 384] | 5.04 | – | – | –
Cc1nn2c(C(F)(F)F)c(C(=O)N[C@H]3CCc4ccccc43)cnc2c1-c1cccc(N(C)C)c1 [Examples 385] | 4.1 | – | – | –
COc1cccc(-c2c(C)nn3c(C(F)(F)F)c(C(=O)N[C@H]4CCc5ccccc54)cnc23)c1 [Examples 386] | 4.34 | – | – | –
Cc1nn2c(C(F)(F)F)c(C(=O)N[C@H]3CCc4ccccc43)cnc2c1-c1cccc(F)c1 [Examples 387] | 4.53 | – | – | –
Cc1nn2c(C(C)C)c(C(=O)N[C@H]3CCc4ccccc43)cnc2c1-c1cnn(CCN2CCOCC2)c1 [Examples 397] | – | – | – | log P [1, 3]: 1.81
Cc1nn2c(C(C)C)c(C(=O)N[C@H]3CCc4ccccc43)cnc2c1-c1cnn(CCN(C)C)c1 [Examples 404] | – | – | – | log P [1, 3]: 1.75
CC(C)c1c(C(=O)N[C@H]2CCc3ccccc32)cnc2c(-c3cccc(OC(F)(F)F)c3)c(C3CC3)nn12 [Examples 406] | – | – | – | log P [1, 3]: 6.11
COCc1cccc(-c2c(C3CC3)nn3c(C(C)C)c(C(=O)N[C@H]4CCc5ccccc54)cnc23)c1 [Examples 409] | – | – | – | log P [1, 3]: 5.13
